# Patent publication US12077503B2, “Substituted cyclic amides and their use as herbicides” (FMC CORPORATION, priority 2015, dated 2024)
# Key:
# Format in all cases: in vivo
# Kochia (Kochia scoparia) [1] = experiment: Test A preemergence; conditions: for Plant response rating, Kochia: 125 g ai/ha, preemergence, 0 to 100 scale (0 no effect, 100 complete control); for Kochia plant response rating (0 to 100 scale, 0 is no effect, 100 is complete control): Preemergence, 500 g ai/ha, visual injury approx. 10 d
# Method in brief: (§1)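 Treatment is preemergence as a directed soil spray after planting, or postemergence at the one- to two-leaf stage, with test chemical in a non-phytotoxic solvent mixture plus surfactant. Plants stay in the greenhouse about 10 d before visual injury scoring on a 0 to 100 scale versus untreated controls.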
# [2] = tested on: barnyardgrass (Echinochloa crus-galli); experiment: Test A preemergence; conditions: for Plant response rating, Barnyardgrass: 125 g ai/ha, preemergence, 0 to 100 scale (0 no effect, 100 complete control); for Barnyardgrass plant response rating (0 to 100 scale, 0 is no effect, 100 is complete control): Preemergence, 500 g ai/ha, visual injury approx. 10 d
# Method in brief: as §1
# [3] = tested on: giant foxtail (Setaria faberii); experiment: Test A preemergence; conditions: for Plant response rating, Foxtail, Giant: 125 g ai/ha, preemergence, 0 to 100 scale (0 no effect, 100 complete control); for Foxtail, Giant plant response rating (0 to 100 scale, 0 is no effect, 100 is complete control): Preemergence, 500 g ai/ha, visual injury approx. 10 d
# Method in brief: as §1
# [4] = tested on: pigweed (Amaranthus retroflexus); experiment: Test A preemergence; conditions: for Plant response rating, Pigweed: 125 g ai/ha, preemergence, 0 to 100 scale (0 no effect, 100 complete control); for Pigweed plant response rating (0 to 100 scale, 0 is no effect, 100 is complete control): Preemergence, 500 g ai/ha, visual injury approx. 10 d
# [5] = tested on: ragweed (common ragweed, Ambrosia elatior); experiment: Test A preemergence; conditions: for Plant response rating, Ragweed: 125 g ai/ha, preemergence, 0 to 100 scale (0 no effect, 100 complete control); for Ragweed plant response rating (0 to 100 scale, 0 is no effect, 100 is complete control): Preemergence, 500 g ai/ha, visual injury approx. 10 d
# Method in brief: as §1
# [6] = tested on: ryegrass, Italian (Italian ryegrass, Lolium multiflorum); experiment: Test A preemergence; conditions: for Plant response rating, Ryegrass, Italian: 125 g ai/ha, preemergence, 0 to 100 scale (0 no effect, 100 complete control); for Ryegrass, Italian plant response rating (0 to 100 scale, 0 is no effect, 100 is complete control): Preemergence, 500 g ai/ha, visual injury approx. 10 d
# Method in brief: as §1
# [7] = tested on: Galium (catchweed bedstraw, Galium aparine); experiment: Test A postemergence; conditions: postemergence; for Galium plant response rating: 125 g ai/ha, visual injury rating on 0 to 100 scale (0 no effect, 100 complete control), approx. 10 d; for Plant response rating, Galium: 500 g ai/ha, 0 to 100 scale, 0 no effect, 100 complete control
# Method in brief: as §1
# Kochia (Kochia scoparia) [8] = experiment: Test A postemergence; conditions: postemergence; for Kochia plant response rating: 125 g ai/ha, visual injury rating on 0 to 100 scale (0 no effect, 100 complete control), approx. 10 d; for Plant response rating, Kochia: 500 g ai/ha, 0 to 100 scale, 0 no effect, 100 complete control
# Method in brief: as §1
# [9] = tested on: barnyardgrass (Echinochloa crus-galli); experiment: Test A postemergence; conditions: postemergence; for Barnyardgrass plant response rating: 125 g ai/ha, visual injury rating on 0 to 100 scale (0 no effect, 100 complete control), approx. 10 d; for Plant response rating, Barnyardgrass: 500 g ai/ha, 0 to 100 scale, 0 no effect, 100 complete control
# Method in brief: as §1
# [10] = tested on: blackgrass (Alopecurus myosuroides); experiment: Test A postemergence; conditions: postemergence; for Blackgrass plant response rating: 125 g ai/ha, visual injury rating on 0 to 100 scale (0 no effect, 100 complete control), approx. 10 d; for Plant response rating, Blackgrass: 500 g ai/ha, 0 to 100 scale, 0 no effect, 100 complete control
# Method in brief: as §1
# corn (Zea mays) = experiment: Test A postemergence; conditions: postemergence; for Corn plant response rating: 125 g ai/ha, visual injury rating on 0 to 100 scale (0 no effect, 100 complete control), approx. 10 d; for Plant response rating, Corn: 500 g ai/ha, 0 to 100 scale, 0 no effect, 100 complete control
# Method in brief: as §1
# [11] = tested on: giant foxtail (Setaria faberii); experiment: Test A postemergence; conditions: postemergence; for Foxtail, Giant plant response rating: 125 g ai/ha, visual injury rating on 0 to 100 scale (0 no effect, 100 complete control), approx. 10 d; for Plant response rating, Foxtail, Giant: 500 g ai/ha, 0 to 100 scale, 0 no effect, 100 complete control
# Method in brief: as §1
# [12] = tested on: pigweed (Amaranthus retroflexus); experiment: Test A postemergence; conditions: postemergence; for Pigweed plant response rating: 125 g ai/ha, visual injury rating on 0 to 100 scale (0 no effect, 100 complete control), approx. 10 d; for Plant response rating, Pigweed: 500 g ai/ha, 0 to 100 scale, 0 no effect, 100 complete control
# Method in brief: as §1
# [13] = tested on: ragweed (common ragweed, Ambrosia elatior); experiment: Test A postemergence; conditions: postemergence; for Ragweed plant response rating: 125 g ai/ha, visual injury rating on 0 to 100 scale (0 no effect, 100 complete control), approx. 10 d; for Plant response rating, Ragweed: 500 g ai/ha, 0 to 100 scale, 0 no effect, 100 complete control
# Method in brief: as §1
# [14] = tested on: ryegrass, Italian (Italian ryegrass, Lolium multiflorum); experiment: Test A postemergence; conditions: postemergence; for Ryegrass, Italian plant response rating: 125 g ai/ha, visual injury rating on 0 to 100 scale (0 no effect, 100 complete control), approx. 10 d; for Plant response rating, Ryegrass, Italian: 500 g ai/ha, 0 to 100 scale, 0 no effect, 100 complete control
# Method in brief: as §1
# [15] = tested on: wheat (Triticum aestivum); experiment: Test A postemergence; conditions: postemergence; for Wheat plant response rating: 125 g ai/ha, visual injury rating on 0 to 100 scale (0 no effect, 100 complete control), approx. 10 d; for Plant response rating, Wheat: 500 g ai/ha, 0 to 100 scale, 0 no effect, 100 complete control
# Method in brief: as §1
# [16] = tested on: barnyardgrass (Echinochloa crus-galli); experiment: Test B flooded paddy test; conditions: Flood, 0 to 100 scale where 0 is no effect and 100 is complete control, 13 to 15 d
# Method in brief: (§2)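 Rating scale 0–100 (visual, vs untreated controls) after a 13–15 d greenhouse period; application to the flood layer, 3 cm above soil and maintained; plants at 2-leaf stage when treated.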
# [17] = tested on: ducksalad (Heteranthera limosa); experiment: Test B flooded paddy test; conditions: Flood, 0 to 100 scale where 0 is no effect and 100 is complete control, 13 to 15 d
# Method in brief: as §2
# rice (Oryra sativa) = experiment: Test B flooded paddy test; conditions: Flood, 0 to 100 scale where 0 is no effect and 100 is complete control, 13 to 15 d
# Method in brief: as §2
# [18] = tested on: sedge, umbrella (small-flower umbrella sedge, Cyperus difformis); experiment: Test B flooded paddy test; conditions: Flood, 0 to 100 scale where 0 is no effect and 100 is complete control, 13 to 15 d
# Method in brief: as §2
Compound,"Plant response rating, Kochia (Kochia (Kochia scoparia) [1])","Kochia plant response rating (0 to 100 scale, 0 is no effect, 100 is complete control) (Kochia (Kochia scoparia) [1])","Plant response rating, Barnyardgrass [2]","Barnyardgrass plant response rating (0 to 100 scale, 0 is no effect, 100 is complete control) [2]","Plant response rating, Foxtail, Giant [3]","Foxtail, Giant plant response rating (0 to 100 scale, 0 is no effect, 100 is complete control) [3]","Plant response rating, Pigweed [4]","Pigweed plant response rating (0 to 100 scale, 0 is no effect, 100 is complete control) [4]","Plant response rating, Ragweed [5]","Ragweed plant response rating (0 to 100 scale, 0 is no effect, 100 is complete control) [5]","Plant response rating, Ryegrass, Italian [6]","Ryegrass, Italian plant response rating (0 to 100 scale, 0 is no effect, 100 is complete control) [6]",Galium plant response rating [7],"Plant response rating, Galium [7]",Kochia plant response rating (Kochia (Kochia scoparia) [8]),"Plant response rating, Kochia (Kochia (Kochia scoparia) [8])",Barnyardgrass plant response rating [9],"Plant response rating, Barnyardgrass [9]",Blackgrass plant response rating [10],"Plant response rating, Blackgrass [10]",also measured
COc1ccc(NC(=O)C2C(=O)NCC2c2cccc(OC(F)F)c2)c(F)c1 (stereo not drawn) [Compound 425],0,0,0,20,40,70,0,0,0,0,0,0,0,0,0,0,20,30,0,0,"Corn plant response rating (corn (Zea mays)): 0; Plant response rating, Corn (corn (Zea mays)): 0; Foxtail, Giant plant response rating [11]: 20; Plant response rating, Foxtail, Giant [11]: 30; Pigweed plant response rating [12]: 0; Plant response rating, Pigweed [12]: 0; Ragweed plant response rating [13]: 0; Plant response rating, Ragweed [13]: 0; Ryegrass, Italian plant response rating [14]: 0; Plant response rating, Ryegrass, Italian [14]: 0; Wheat plant response rating [15]: 0; Plant response rating, Wheat [15]: 0; Plant response rating, Barnyardgrass ([16]; 500 g ai/ha): 0; Plant response rating, Ducksalad ([17]; 500 g ai/ha): 30; Plant response rating, Rice (rice (Oryra sativa); 500 g ai/ha): 0; Plant response rating, Sedge, Umbrella ([18]; 500 g ai/ha): 0"
CN1CC(c2ccc(Cl)cc2)C(C(=O)Nc2cccc(F)c2F)C1=O (stereo not drawn) [Compound 434],70,80,90,90,90,100,80,90,50,60,60,90,60,60,70,70,90,90,50,50,"Corn plant response rating (corn (Zea mays)): 0; Plant response rating, Corn (corn (Zea mays)): 70; Foxtail, Giant plant response rating [11]: 90; Plant response rating, Foxtail, Giant [11]: 90; Pigweed plant response rating [12]: 60; Plant response rating, Pigweed [12]: 70; Ragweed plant response rating [13]: 20; Plant response rating, Ragweed [13]: 20; Ryegrass, Italian plant response rating [14]: 0; Plant response rating, Ryegrass, Italian [14]: 50; Wheat plant response rating [15]: 20; Plant response rating, Wheat [15]: 70; Plant response rating, Barnyardgrass ([16]; 250 g ai/ha): 70; Plant response rating, Ducksalad ([17]; 250 g ai/ha): 100; Plant response rating, Rice (rice (Oryra sativa); 250 g ai/ha): 0; Plant response rating, Sedge, Umbrella ([18]; 250 g ai/ha): 0"
CN1CC(c2ccc(F)cc2)C(C(=O)Nc2cccc(F)c2F)C1=O (stereo not drawn) [Compound 438],70,80,90,100,100,100,80,90,60,90,50,70,40,50,70,70,90,90,40,70,"Corn plant response rating (corn (Zea mays)): 0; Plant response rating, Corn (corn (Zea mays)): 50; Foxtail, Giant plant response rating [11]: 90; Plant response rating, Foxtail, Giant [11]: 90; Pigweed plant response rating [12]: 0; Plant response rating, Pigweed [12]: 60; Ragweed plant response rating [13]: 0; Plant response rating, Ragweed [13]: 30; Ryegrass, Italian plant response rating [14]: 40; Plant response rating, Ryegrass, Italian [14]: 60; Wheat plant response rating [15]: 30; Plant response rating, Wheat [15]: 70; Plant response rating, Barnyardgrass ([16]; 250 g ai/ha): 85; Plant response rating, Ducksalad ([17]; 250 g ai/ha): 100; Plant response rating, Rice (rice (Oryra sativa); 250 g ai/ha): 20; Plant response rating, Sedge, Umbrella ([18]; 250 g ai/ha): 0"
